From PubChem BioAssay AID2060500 (Molecular Pharmacology Branch, DTP, NCI, 2025)

Tested on: 596521-263-R-J1-PDC complex spheroids, viability % of control
Assay: Anticancer human tumor 596521-263-R-J1-PDC patient-derived soft tissue sarcoma cell line growth inhibition [GQUAD]
Conditions: for IC50: curve of first compound; for viability, T/C: stronger effect = lower value
How it was run: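 Viability of tumor cells grown as complex spheroids with endothelial and stromal cells, exposed to drug combinations. Top concentration at or near clinical Cmax (else 10 microM), diluted in half-log increments.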

[1] = second compound 0.0316 µM, first compound 0.0316 µM
[2] = second compound 0.0316 µM, first compound 0.1 µM
[3] = second compound 0.0316 µM, first compound 0.316 µM
[4] = second compound 0.0316 µM, first compound 1 µM
[5] = second compound 0.0316 µM, first compound 3.16 µM
[6] = second compound 0.0316 µM, first compound 10 µM
[7] = second compound 0.1 µM, first compound 0.0316 µM
[8] = second compound 0.1 µM, first compound 0.1 µM
[9] = second compound 0.1 µM, first compound 0.316 µM
[10] = second compound 0.1 µM, first compound 1 µM
[11] = second compound 0.1 µM, first compound 3.16 µM
[12] = second compound 0.1 µM, first compound 10 µM
[13] = second compound 0.316 µM, first compound 0.0316 µM
[14] = second compound 0.316 µM, first compound 0.1 µM
[15] = second compound 0.316 µM, first compound 0.316 µM
[16] = second compound 0.316 µM, first compound 1 µM
[17] = second compound 0.316 µM, first compound 3.16 µM
[18] = second compound 0.316 µM, first compound 10 µM
[19] = second compound 1 µM, first compound 0.0316 µM
[20] = second compound 1 µM, first compound 0.1 µM
[21] = second compound 1 µM, first compound 0.316 µM
[22] = second compound 1 µM, first compound 1 µM
[23] = second compound 1 µM, first compound 3.16 µM
[24] = second compound 1 µM, first compound 10 µM
[25] = second compound 3.16 µM, first compound 0.0316 µM
[26] = second compound 3.16 µM, first compound 0.1 µM
[27] = second compound 3.16 µM, first compound 0.316 µM
[28] = second compound 3.16 µM, first compound 1 µM
[29] = second compound 3.16 µM, first compound 3.16 µM
[30] = second compound 3.16 µM, first compound 10 µM
[31] = second compound 10 µM, first compound 0.0316 µM
[32] = second compound 10 µM, first compound 0.1 µM
[33] = second compound 10 µM, first compound 0.316 µM
[34] = second compound 10 µM, first compound 1 µM
[35] = second compound 10 µM, first compound 3.16 µM
[36] = second compound 10 µM, first compound 10 µM
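Further: spheroids exposed to drugs for 7 days before viability reading.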
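Wherever viability, T/C is given: 100% = DMSO vehicle control viability.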

Molecule C=CCn1c(=O)c2cnc(Nc3ccc(N4CCN(C)CC4)cc3)nc2n1-c1cccc(C(C)(C)O)n1 + CN(C)c1ccc(Nc2c3ccc(NC(=O)CCN4CCCC4)cc3nc3cc(NC(=O)CCN4CCCC4)ccc23)cc1 has an IC50 (second compound 0.0316 µM) of 644 nM, an IC50 (second compound 0.1 µM) of 544 nM and an IC50 (second compound 0.316 µM) of 484 nM. It also gave an IC50 (second compound 1 µM) of 760 nM, an IC50 (second compound 3.16 µM) of 757 nM and an IC50 (second compound 10 µM) of 308 nM. It also gave a viability, T/C [1] of 90.4%, a viability, T/C [2] of 81.2% and a viability, T/C [3] of 53.5%. The viability, T/C [4] was 44.9%, the viability, T/C [5] was 42% and the viability, T/C [6] was 27.7%. It also gave a viability, T/C [7] of 105%, a viability, T/C [8] of 82.5% and a viability, T/C [9] of 53.9%. It also gave a viability, T/C [10] of 44.1%, a viability, T/C [11] of 45.3% and a viability, T/C [12] of 32.9%. For the same molecule, the viability, T/C [13] was 90.5%, the viability, T/C [14] was 90.4% and the viability, T/C [15] was 54.5%. It also gave a viability, T/C [16] of 47.3%, a viability, T/C [17] of 46.1% and a viability, T/C [18] of 32.1%. The viability, T/C [19] was 86.4%, the viability, T/C [20] was 79.6% and the viability, T/C [21] was 57.1%. The viability, T/C [22] was 47%, the viability, T/C [23] was 49.4% and the viability, T/C [24] was 34.7%. It also gave a viability, T/C [25] of 100%, a viability, T/C [26] of 84.8% and a viability, T/C [27] of 63.9%. For the same molecule, the viability, T/C [28] was 44.4%, the viability, T/C [29] was 38.2% and the viability, T/C [30] was 31.2%. It also gave a viability, T/C [31] of 66.9%, a viability, T/C [32] of 54.9% and a viability, T/C [33] of 47.3%. For the same molecule, the viability, T/C [34] was 44.7%, the viability, T/C [35] was 34.2% and the viability, T/C [36] was 20.7%.
In the case of CC(C)(O)C1CCC(Nc2ccc3ncc(-c4cccc(C(F)(F)F)c4)n3n2)CC1 (stereo not drawn) + CN(C)c1ccc(Nc2c3ccc(NC(=O)CCN4CCCC4)cc3nc3cc(NC(=O)CCN4CCCC4)ccc23)cc1, the IC50 (second compound 0.0316 µM) is reported as 1420 nM, the IC50 (second compound 0.1 µM) is reported as 1370 nM and the IC50 (second compound 0.316 µM) is reported as 1560 nM. For the same molecule, the IC50 (second compound 1 µM) was 1720 nM, the IC50 (second compound 3.16 µM) was 1520 nM and the IC50 (second compound 10 µM) was 915 nM. It also gave a viability, T/C [1] of 96.8%, a viability, T/C [2] of 97.3% and a viability, T/C [3] of 81.7%. It also gave a viability, T/C [4] of 65%, a viability, T/C [5] of 16.9% and a viability, T/C [6] of 19.1%. It also gave a viability, T/C [7] of 94.2%, a viability, T/C [8] of 84.5% and a viability, T/C [9] of 87%. The viability, T/C [10] was 61%, the viability, T/C [11] was 20.4% and the viability, T/C [12] was 21.6%. It also gave a viability, T/C [13] of 97%, a viability, T/C [14] of 113% and a viability, T/C [15] of 83.4%. The viability, T/C [16] was 70.5%, the viability, T/C [17] was 19.9% and the viability, T/C [18] was 20.2%. The viability, T/C [19] was 92.9%, the viability, T/C [20] was 95.9% and the viability, T/C [21] was 78.6%. For the same molecule, the viability, T/C [22] was 75.5%, the viability, T/C [23] was 19.1% and the viability, T/C [24] was 24%. The viability, T/C [25] was 87.1%, the viability, T/C [26] was 97.3% and the viability, T/C [27] was 83.8%. For the same molecule, the viability, T/C [28] was 66.4%, the viability, T/C [29] was 18.1% and the viability, T/C [30] was 24.2%. For the same molecule, the viability, T/C [31] was 65.3%, the viability, T/C [32] was 61.7% and the viability, T/C [33] was 61.1%. It also gave a viability, T/C [34] of 49%, a viability, T/C [35] of 13.8% and a viability, T/C [36] of 13.1%.
Work on Cc1[nH]c2ccccc2c1CCNCc1ccc(/C=C/C(=O)NO)cc1 + CN(C)c1ccc(Nc2c3ccc(NC(=O)CCN4CCCC4)cc3nc3cc(NC(=O)CCN4CCCC4)ccc23)cc1 yielded an IC50 (second compound 0.0316 µM) of 46.6 nM, an IC50 (second compound 0.1 µM) of 42.4 nM and an IC50 (second compound 0.316 µM) of 31.8 nM. For the same molecule, the IC50 (second compound 1 µM) was 36.8 nM, the IC50 (second compound 3.16 µM) was 24.9 nM and the IC50 (second compound 10 µM) was 13.5 nM. For the same molecule, the viability, T/C (second compound 0.0316 µM, first compound 0.000999 µM) was 102%, the viability, T/C (second compound 0.0316 µM, first compound 0.00316 µM) was 89.2% and the viability, T/C (second compound 0.0316 µM, first compound 0.00999 µM) was 79.8%. The viability, T/C [1] was 58.1%, the viability, T/C (second compound 0.0316 µM, first compound 0.0999 µM) was 32.9% and the viability, T/C [3] was 1.76%. For the same molecule, the viability, T/C (second compound 0.1 µM, first compound 0.000999 µM) was 94.7%, the viability, T/C (second compound 0.1 µM, first compound 0.00316 µM) was 94.9% and the viability, T/C (second compound 0.1 µM, first compound 0.00999 µM) was 78.1%. The viability, T/C [7] was 58.4%, the viability, T/C (second compound 0.1 µM, first compound 0.0999 µM) was 27.4% and the viability, T/C [9] was 2.91%. The viability, T/C (second compound 0.316 µM, first compound 0.000999 µM) was 102%, the viability, T/C (second compound 0.316 µM, first compound 0.00316 µM) was 81.3% and the viability, T/C (second compound 0.316 µM, first compound 0.00999 µM) was 77%. It also gave a viability, T/C [13] of 50.4%, a viability, T/C (second compound 0.316 µM, first compound 0.0999 µM) of 22.8% and a viability, T/C [15] of 1.67%. For the same molecule, the viability, T/C (second compound 1 µM, first compound 0.000999 µM) was 90.6%, the viability, T/C (second compound 1 µM, first compound 0.00316 µM) was 88.3% and the viability, T/C (second compound 1 µM, first compound 0.00999 µM) was 75.6%. For the same molecule, the viability, T/C [19] was 54.8%, the viability, T/C (second compound 1 µM, first compound 0.0999 µM) was 23.3% and the viability, T/C [21] was 1.36%. For the same molecule, the viability, T/C (second compound 3.16 µM, first compound 0.000999 µM) was 78.6%, the viability, T/C (second compound 3.16 µM, first compound 0.00316 µM) was 82.4% and the viability, T/C (second compound 3.16 µM, first compound 0.00999 µM) was 64.7%. The viability, T/C [25] was 46.2%, the viability, T/C (second compound 3.16 µM, first compound 0.0999 µM) was 18.4% and the viability, T/C [27] was 1.06%. The viability, T/C (second compound 10 µM, first compound 0.000999 µM) was 62.2%, the viability, T/C (second compound 10 µM, first compound 0.00316 µM) was 53.7% and the viability, T/C (second compound 10 µM, first compound 0.00999 µM) was 57.4%. The viability, T/C [31] was 36.4%, the viability, T/C (second compound 10 µM, first compound 0.0999 µM) was 13.3% and the viability, T/C [33] was 0.5%.
O=C(NO)c1cnc(N2CCN(S(=O)(=O)c3ccc4ccccc4c3)CC2)nc1 + CN(C)c1ccc(Nc2c3ccc(NC(=O)CCN4CCCC4)cc3nc3cc(NC(=O)CCN4CCCC4)ccc23)cc1 gave an IC50 (second compound 0.0316 µM) of 112 nM, an IC50 (second compound 0.1 µM) of 97.3 nM and an IC50 (second compound 0.316 µM) of 126 nM. The IC50 (second compound 1 µM) was 112 nM, the IC50 (second compound 3.16 µM) was 76.9 nM and the IC50 (second compound 10 µM) was under 31.6 nM. The viability, T/C [1] was 77.3%, the viability, T/C [2] was 54.4% and the viability, T/C [3] was 7.95%. The viability, T/C [4] was 0.72%, the viability, T/C [5] was 0.35% and the viability, T/C [6] was 0.33%. It also gave a viability, T/C [7] of 76.3%, a viability, T/C [8] of 49.4% and a viability, T/C [9] of 9.87%. The viability, T/C [10] was 0.62%, the viability, T/C [11] was 0.38% and the viability, T/C [12] was 0.34%. For the same molecule, the viability, T/C [13] was 76.5%, the viability, T/C [14] was 60.9% and the viability, T/C [15] was 7.1%. The viability, T/C [16] was 0.61%, the viability, T/C [17] was 0.29% and the viability, T/C [18] was 0.34%. For the same molecule, the viability, T/C [19] was 74.4%, the viability, T/C [20] was 54.7% and the viability, T/C [21] was 7.49%. The viability, T/C [22] was 0.53%, the viability, T/C [23] was 0.35% and the viability, T/C [24] was 1.39%. For the same molecule, the viability, T/C [25] was 65.4%, the viability, T/C [26] was 45.4% and the viability, T/C [27] was 7.07%. For the same molecule, the viability, T/C [28] was 0.61%, the viability, T/C [29] was 0.37% and the viability, T/C [30] was 0.78%. The viability, T/C [31] was 48.2%, the viability, T/C [32] was 35.6% and the viability, T/C [33] was 3.88%. For the same molecule, the viability, T/C [34] was 0.37%, the viability, T/C [35] was 0.37% and the viability, T/C [36] was 0.34%.
